Tests used:
physchem = conditions: water, thermodynamic from solid
[1] = intrinsic dissolution rate (US Pharmacopoeia, chapter 1087); assay type: physicochemical
Description: The intrinsic dissolution rate was measured by the procedure set out in the US Pharmacopoeia, chapter 1087.

[2] = stability in aqueous media; assay type: physicochemical; conditions: 0.2 mg/ml; for stability in aqueous media (in words): 50° C. and room temperature; for Stability in aqueous media (24 hrs at 50° C.) / Stability in aqueous media (24 hrs at room temperature): sodium salt in water, free acid in 1:1 water and acetonitrile; for Stability in aqueous media (24 hrs at 50° C.): amber vial
Description: To measure the stability in aqueous media, the sodium salt was dissolved in water at a concentration of 0.2 mg/ml. Due to the very poor aqueous solubility of the free acid, the free acid was dissolved in a 1:1 mixture of water and acetonitrile at the same concentration of 0.2 mg/ml. Samples were kept at 50° C. in an amber vial and at room temperature in an amber vial as well as a clear vial.

[3] = thermodynamic aqueous solubility measured in water
[4] = XRPD after storage at elevated temperature and humidity (stability of polymorphic form); assay type: physicochemical
Description: X-Ray Powder Diffraction (XRPD), Ion Chromatography (IC), Karl Fischer titration (KF), Thermogravimetric Analysis (TGA), Differential Scanning Calorimetry (DSC) and high performance liquid chromatography (HPLC) techniques referred to in the examples were carried out under the following conditions: XRPD diffractograms were collected on a Bruker D8 diffractometer using CuKα radiation (40 kV, 40 mA) and a θ-2θ goniometer fitted with a Ge monochromator. The incident beam passed through a 2.0 mm divergence slit followed by a 0.2 mm antiscatter slit and knife edge. The diffracted beam passed through an 8.0 mm receiving slit with 2.5° Soller slits followed by the Lynxeye Detector. The software used for data collection and analysis was Diffrac Plus XRD Commander and Diffrac Plus EVA respectively. Samples were run under ambient conditions as flat plate specimens using powder as received. The sample was prepared on a polished, zero-background (510) silicon wafer by gently pressing onto the flat surface or packed into a cut cavity.
The XRPD spectra shown in FIG. 1 were obtained directly after preparation of the product, after storage for 1 week and for 5 weeks at 40° C. and 75% relative humidity, and after storage for 1 week and for 5 weeks at 25° C. and 97% relative humidity.
The XRPD spectra shown in FIG. 3 were obtained directly after preparation of the product, after storage for 1 week at 40° C. and 75% relative humidity, and after storage for 1 week at 25° C. and 97% relative humidity.

| Structure (SMILES) | solubility (physchem) | Intrinsic dissolution rate (at pH 2) [1] | intrinsic dissolution rate relative to that of the free acid ([1]; sodium salt versus free acid) | stability in aqueous media (in words) [2] | Stability in aqueous media (24 hrs at 50° C.) [2] | Stability in aqueous media (24 hrs at room temperature) [2] | resulting pH of aqueous solution ([3]; in water at solubility of 81 mg/ml) | stability with respect to conversion into other polymorphic forms (XRPD) ([4]; storage 1 week and 5 weeks at 40° C. and 75% relative humidity, and 1 week and 5 weeks at 25° C. and 97% relative humidity) | polymorphic form stability on storage at elevated humidity (XRPD) ([4]; 1 week at 25° C. and 97% relative humidity) | polymorphic form stability on storage at elevated temperature (XRPD) ([4]; 1 week at 40° C. and 75% relative humidity) | Aqueous Solubility ([3]; thermodynamic, in water) | solubility ([3]; water, thermodynamic from solid) |
| --- | --- | --- | --- | --- | --- | --- | --- | --- | --- | --- | --- | --- |
| CC(C)n1ccc(S(=O)(=O)NC(=O)Nc2c3c(cc4c2CCC4)CCC3)n1.O.[Na] [Example 2, N-((1,2,3,5,6,7-hexahydro-s-indacen-4-yl)carbamoyl)-1-isopropyl-1H-pyrazole-3-sulfonamide monosodium monohydrate] | 81 mg/mL | 10 μg/min · mm^2 | at least twice as high | stable in aqueous media | 2.7% degradation | No significant | 9.7 | shows stability with respect to conversion into other polymorphic forms | – | – | – | – |
| CC(C)n1ccc(S(=O)(=O)NC(=O)Nc2c3c(cc4c2CCC4)CCC3)n1.[Na] [Example 3, N-((1,2,3,5,6,7-hexahydro-s-indacen-4-yl)carbamoyl)-1-isopropyl-1H-pyrazole-3-sulfonamide monosodium anhydrate] | – | – | – | – | – | – | – | – | converts to the monosodium monohydrate (Form 1) | stable at elevated temperature | – | – |
| CC(C)n1ccc(S(=O)(=O)NC(=O)Nc2c3c(cc4c2CCC4)CCC3)n1 [Comparative Example 1, N-((1,2,3,5,6,7-hexahydro-s-indacen-4-yl)carbamoyl)-1-isopropyl-1H-pyrazole-3-sulfonamide free acid, reference compound] | – | 4 μg/min · mm^2 | – | unstable | 94% degradation | 37% degradation | – | – | – | – | <0.5 mg/mL | < 0.5 mg/mL |

From patent US10973803B2, “Sodium salt of N-((1,2,3,5,6,7-hexahydro-s-indacen-4-yl)carbamoyl)-1-isopropyl-1H-pyrazole-3-sulfonamide” (INFLAZOME LIMITED, priority 2018, dated 2021)
